How the values were obtained:
[1] = target: T1, UOGF; experiment: Intrinsic protein fluorescence quenching by quercetin (0-30 uM, 0.3 mg/mL protein, pH 3.2, inner filter corrected), double-logarithmic Stern-Volmer plot, 310 K.; type: binding; details: n = 3
T1 construct: amyloid-like fibrils, ultrasound pretreatment (pH 2, 9 W/mL, 20 min) then 90 °C for 18 h, partly hydrolysed
Description: (§1) Intrinsic fluorescence spectroscopy was employed to investigate the interaction between OG and its fibrillar products with Que. The binding capacities of OG, OGF, and UOGF were evaluated at pH 3.2 with various concentrations of Que (0, 2.5, 5, 10, 15, 20, and 30 μM). The mixed samples were incubated at different temperatures of 24.85, 30.85, and 36.85 °C (298, 304, and 310 K) for 30 min. Then the intrinsic fluorescence spectra of each sample (0.3 mg/mL) were recorded using a Cary Eclipse fluorescence spectrophotometer (Agilent Technologies, Santa Clara, CA, USA) following to the previously described protocols. The instrument voltage was set to 650 V, with a slit width and scan rate of 5 nm and 1000 nm/min, respectively. Meanwhile, to correct for the inner filter effect, the following equation was applied as described by Ren et al.. (1) Fc=Fm×10^(Aex+Aem)/2 where Fc and Fm represent the corrected and measured fluorescence intensities, while Aex and Aem denote the absorbance at the excitation and emission wavelengths, respectively.
(§2) The fluorescence quenching mechanism of the complex system was further analyzed by fitting the obtained fluorescence intensity data using the Stern–Volmer equation: (2) F0/F=1+KSVQ=1+Kqτ0Q where F0 and F represent the fluorescence intensities of OG and its fibrils before and after the addition of the polyphenol quencher (Que), respectively; KSV is the Stern–Volmer quenching constant; Kq is the quenching rate constant; [Q] is the concentration of the quencher Que; and τ0 is the average lifetime of the fluorophore in the absence of the quencher.
(§3) Considering the static quenching effect between the OG protein/fibrils and the Que ligand, the binding mechanism was further analyzed using a double logarithmic Stern–Volmer equation: (9) lgF0−F/F=lgKa+nlgQ where the binding constant (Ka) and the number of binding sites (n) are key quantitative parameters reflecting the interaction between the bioactive molecule and the protein; the magnitude of Kₐ indicates the binding affinity between Que and the protein.

[2] = target: T2, OGF; experiment: as above; type: binding; details: n = 3
T2 construct: amyloid-like fibrils made by acid-heat treatment without ultrasound, partly hydrolysed
Description: as §1, §2, §3

[3] = target: T3, OG; experiment: as above; type: binding; details: n = 3
T3 construct: native oat globulin isolate, unfibrillated, pH 3.2
Description: as §1, §2, §3

[4] = target: T1, UOGF; experiment: Intrinsic protein fluorescence quenching by quercetin (0-30 uM, 0.3 mg/mL protein, pH 3.2, inner filter corrected), double-logarithmic Stern-Volmer plot, 298 K.; type: binding; details: n = 3
Description: as §1, §2, §3

[5] = target: T2, OGF; experiment: as above; type: binding; details: n = 3
Description: as §1, §2, §3

[6] = target: T3, OG; experiment: as above; type: binding; details: n = 3
Description: as §1, §2, §3

[7] = target: T1, UOGF; experiment: Intrinsic protein fluorescence quenching by quercetin (0-30 uM, 0.3 mg/mL protein, pH 3.2, inner filter corrected), double-logarithmic Stern-Volmer plot, 304 K.; type: binding; details: n = 3
Description: as §1, §2, §3

[8] = target: T2, OGF; experiment: as above; type: binding; details: n = 3
Description: as §1, §2, §3

[9] = target: T3, OG; experiment: as above; type: binding; details: n = 3
Description: as §1, §2, §3

[10] = In vitro simulated gastrointestinal digestion, bioaccessibility of Que; type: in vitro ADME; details: simulated gastric (2 h) and intestinal (2 h) digestion, 37 °C
Description: The release behavior and bioaccessibility of Que in the complex system were evaluated using an in vitro simulated digestion model with modifications based on previous studies. Briefly, sample solutions loaded with Que (protein concentration: 4 mg/mL) were mixed with equal volumes (10 mL) of simulated gastric fluid containing pepsin. The pH was adjusted to 2.0 using 6 M HCl, and the mixture was incubated at 37 °C with shaking at 100 rpm to simulate gastric digestion for 2 h. Afterward, the pH was adjusted to 7.0 to terminate gastric digestion. For intestinal digestion, 5 mL of the gastric digest was mixed with 5 mL of simulated intestinal fluid containing trypsin and bile salts, followed by incubation at 37 °C for another 2 h. The collected digestion products were centrifuged at 10,000× g for 30 min at 4 °C, and the supernatant was analyzed for Que content to determine the bioaccessibility: (8) Bioaccessibility of Que%=Csupernatant/Cdigesta×100% where Csupernatant denotes the Que content in the supernatant after digestion, and Cdigesta refers to the total Que content in the final digesta after simulated gastrointestinal digestion.

[11] = Photostability of Que under 365 nm UV lamp; type: physicochemical; details: 1.32 mW/cm^2, 150 min
Description: The photostability of encapsulated Que was assessed using a 365 nm UV lamp with a light intensity of 1.32 mW/cm^2. Aliquots of 5 mL from each sample group were placed 10 cm away from the UV light source and exposed for various durations (0, 10, 30, 60, 90, 120, and 150 min). The retention of Que in each sample was then measured.

[12] = Thermal stability of Que at 85 °C; type: physicochemical
Description: The thermal stability of Que was evaluated following a previously described method with slight modifications. Briefly, 5 mL aliquots of free Que suspension (control), OG-Que complex solution, OGF-Que complex solution, and UOGF-Que complex solution were placed in a water bath at 85 °C under dark conditions in sealed containers. At predetermined time intervals (0, 10, 30, 60, 90, 120, and 150 min), samples were withdrawn, rapidly cooled to 25 °C, vortexed, and analyzed for Que retention.

Row | SMILES | Ka (M^−1), 310 K [1] [M⁻¹] | Ka (M^−1), 310 K [2] [M⁻¹] | Ka (M^−1), 310 K [3] [M⁻¹] | Ka (M^−1), 298 K [4] [M⁻¹] | Ka (M^−1), 298 K [5] [M⁻¹] | Ka (M^−1), 298 K [6] [M⁻¹] | Ka (M^−1), 304 K [7] [M⁻¹] | Ka (M^−1), 304 K [8] [M⁻¹] | Ka (M^−1), 304 K [9] [M⁻¹] | bioaccessibility of Que [10] [%] | retention rate of Que after UV exposure [11] [%] | retention rate of Que after heating ([12]; 30 min) [%] | retention rate of Que after heating ([12]; 150 min) [%]
1 | O=c1c(O)c(-c2ccc(O)c(O)c2)oc2cc(O)cc(O)c12 [Que, quercetin] | 202600 | 79670 | 16470 | 20910 | 17140 | 12850 | 49870 | 26060 | 16330 |  |  |  | 
2 | O=c1c(O)c(-c2ccc(O)c(O)c2)oc2cc(O)cc(O)c12 [Que, Quercetin] |  |  |  |  |  |  |  |  |  | 8.21 | 27.78 | 45.13 | 26.48
